Results taken from the Kinase Knowledgebase extract (Sharma et al. 2016).

Biological target: PIK3CB;PIK3CG;PIK3CD;PIK3CA (human) (UniProt P48736)
Test: Enzyme Assay

Structure (SMILES) | IC50 [nM]
Cn1nc(C(=O)N2CCOCC2)c2c1-c1ccccc1S(=O)(=O)C2Cc1ccccc1 (configuration not stated) | 5270
O=C(c1nn(-c2ccccc2)c2c1C(CC1CC1)S(=O)(=O)c1ccccc1-2)N1CCOCC1 (configuration not stated) | 3900
O=C(c1nn(C2CCCCC2)c2c1CS(=O)(=O)c1ccsc1-2)N1CCOCC1 | 212
COCCNc1ccc2c(c1)S(=O)(=O)Cc1c(C(=O)N3CCOCC3)nn(-c3ccccc3)c1-2 | 6610
Cn1cc(-c2cccc(-n3nc(C(=O)N4CCOCC4)c4c3-c3ccccc3S(=O)(=O)C4)c2)cn1 | 184
O=C(c1nn(-c2ccc(CN3CCC(F)CC3)nc2)c2c1CS(=O)(=O)c1ccccc1-2)N1CCOCC1 | 1200
O=C(c1nn(-c2ccccc2)c2c1CS(=O)(=O)c1ccc(CN3CCOCC3)cc1-2)N1CCOCC1 | 1620
Cn1nc(C(=O)N2CCOCC2)c2c1-c1cccc(F)c1S(=O)(=O)C2 | 687
CCn1nc(C(=O)N2CCOCC2)c2c1-c1ccccc1S(=O)(=O)C2 | 601
Cc1ccccc1-n1nc(C(=O)N2CCOCC2)c2c1-c1ccccc1S(=O)(=O)C2 | 2280
COc1ccc(C(=O)Cn2nc(C(=O)N3CCOCC3)c3c2-c2ccccc2S(=O)(=O)C3)cc1 | 14500
Cc1ccc2c(c1)S(=O)(=O)Cc1c(C(=O)N3CCOCC3)nn(-c3ccccc3)c1-2 | 1840
O=C(c1nn(CCc2ccccc2)c2c1CS(=O)(=O)c1ccccc1-2)N1CCOCC1 | 1440
CC(C)Cn1nc(C(=O)N2CCOCC2)c2c1-c1ccccc1S(=O)(=O)C2 | 960
O=C(c1nn(-c2ccccc2Cl)c2c1CS(=O)(=O)c1ccccc1-2)N1CCOCC1 | 4020
O=C(c1nn(-c2ccccc2)c2c1CS(=O)(=O)c1cc(Br)ccc1-2)N1CCOCC1 | 904
O=C(c1nn(C2CCOC2)c2c1CS(=O)(=O)c1c(F)cccc1-2)N1CCOCC1 (configuration not stated) | 353
COCCCn1nc(C(=O)N2CCOCC2)c2c1-c1ccccc1S(=O)(=O)C2 | 907
O=C(c1nn(-c2ccc(CNC3CCCOC3)cc2)c2c1CS(=O)(=O)c1ccccc1-2)N1CCOCC1 (configuration not stated) | 224
O=C(c1nn([C@@H]2CCN(CCC3CCOCC3)C2)c2c1CS(=O)(=O)c1c(F)cccc1-2)N1CCOCC1 | 1690
O=C(c1nn(-c2cccc(CN3CC(F)(F)C3)c2)c2c1CS(=O)(=O)c1ccccc1-2)N1CCOCC1 | 643
O=C(c1nn(C2CCN(CCCl)C2)c2c1CS(=O)(=O)c1ccccc1-2)N1CCOCC1 (configuration not stated) | 305
O=C(c1nn(-c2cccc(-c3nccs3)c2)c2c1CS(=O)(=O)c1ccccc1-2)N1CCOCC1 | 4220
CC(C)(CN1CCOCC1)c1ccc(-n2nc(C(=O)N3CCOCC3)c3c2-c2ccccc2S(=O)(=O)C3)cc1 | 341
O=C(c1nn(-c2ccc(Br)cc2)c2c1CS(=O)(=O)c1ccccc1-2)N1CCOCC1 | 1120
O=C(c1nn([C@@H]2CCN(C3CCOCC3)C2)c2c1CS(=O)(=O)c1c(F)cccc1-2)N1CCOCC1 | 2040

Structure (SMILES) | IC50 [nM]
O=C(c1nn([C@H]2CCN(C3CCOCC3)C2)c2c1CS(=O)(=O)c1c(F)cccc1-2)N1CCOCC1 | 52
O=C(c1nn(C2CCCN(CC3CCOC3)C2)c2c1CS(=O)(=O)c1c(F)cccc1-2)N1CCOCC1 (configuration not stated) | 21
O=C(c1nn([C@@H]2CCCN(CC3CCOCC3)C2)c2c1CS(=O)(=O)c1ncccc1-2)N1CCOCC1 | 830
CCOc1ccc2c(c1)S(=O)(=O)Cc1c(C(=O)N3CCOCC3)nn(-c3ccc(CN4CCOCC4)cc3)c1-2 | 250
COc1ccc(-n2nc(C(=O)N3CCOCC3)c3c2-c2ccccc2S(=O)(=O)C3)cn1 | 2200
O=C(c1nn(-c2ccc(CN3CCC(O)C3)cc2)c2c1CS(=O)(=O)c1ccccc1-2)N1CCOCC1 (configuration not stated) | 859
CC1COCCN1C(=O)c1nn(-c2ccccc2)c2c1CS(=O)(=O)c1ccccc1-2 (configuration not stated) | 13900
O=C(c1nn(-c2ccc(F)cc2)c2c1CS(=O)(=O)c1ccccc1-2)N1CCOCC1 | 373
COc1cccc(Cn2nc(C(=O)N3CCOCC3)c3c2-c2ccccc2S(=O)(=O)C3)c1 | 1170
O=C(c1nn(Cc2ccccn2)c2c1CS(=O)(=O)c1ccccc1-2)N1CCOCC1 | 3960
O=C(c1nn(-c2ccccc2)c2c1CS(=O)(=O)c1ccccc1-2)N1CCOCC1 | 244
O=C(c1nn(-c2ccc(CN3CCOCC3)cc2)c2c1CS(=O)(=O)c1ncccc1-2)N1CCOCC1 | 400
O=C(c1nn(-c2cccc(N3CCCC3)c2)c2c1CS(=O)(=O)c1ccccc1-2)N1CCOCC1 | 4950
Cn1nc(C(=O)N2CCOCC2)c2c1-c1cc(F)ccc1S(=O)(=O)C2 | 2220
O=C(Nc1cccc(-n2nc(C(=O)N3CCOCC3)c3c2-c2ccccc2S(=O)(=O)C3)c1)N1CCOCC1 | 3590
O=C(c1nn(C2CCOCC2)c2c1CS(=O)(=O)c1c(F)cccc1-2)N1CCOCC1 | 1030
O=C(c1cccc(-n2nc(C(=O)N3CCOCC3)c3c2-c2ccccc2S(=O)(=O)C3)c1)N1CCS(=O)(=O)CC1 | 319
O=C(c1ccc(-n2nc(C(=O)N3CCOCC3)c3c2-c2ccccc2S(=O)(=O)C3)cc1)N1CCCCC1 | 238
CS(=O)(=O)C1CCN(Cc2ccc(-n3nc(C(=O)N4CCOCC4)c4c3-c3ccccc3S(=O)(=O)C4)cc2)C1 (configuration not stated) | 920
CNCc1ccc(-n2nc(C(=O)N3CCOCC3)c3c2-c2ccccc2S(=O)(=O)C3)cc1 | 226
O=C(c1nn(-c2ccccc2)c2c1CS(=O)(=O)c1ccsc1-2)N1CCOCC1 | 643
O=C(c1nn([C@H]2CCCN(C3CCOCC3)C2)c2c1CS(=O)(=O)c1c(F)cccc1-2)N1CCOCC1 | 13
O=C(c1nn(-c2cccc(CN3CCC(F)CC3)c2)c2c1CS(=O)(=O)c1ccccc1-2)N1CCOCC1 | 437
CC(C)CCOC1CCN(Cc2cccc(-n3nc(C(=O)N4CCOCC4)c4c3-c3ccccc3S(=O)(=O)C4)c2)C1 (configuration not stated) | 389
O=C(c1nn([C@H]2CCCN(C3CCCOC3)C2)c2c1CS(=O)(=O)c1c(F)cccc1-2)N1CCOCC1 (some centres not stated) | 25

Results, then the molecule that gave them:

IC50 [nM] | Structure (SMILES)
45 | O=C(c1nn([C@@H]2CCN(C3CCOCC3)C2)c2c1CS(=O)(=O)c1ccccc1-2)N1CCOCC1
326 | O=C(c1nn(C2CCCOC2)c2c1CS(=O)(=O)c1ccccc1-2)N1CCOCC1 (configuration not stated)
40 | COc1cccc2c1S(=O)(=O)Cc1c(C(=O)N3CCOCC3)nn([C@H]3CCCN(CCN4CC(F)(F)C4)C3)c1-2
30 | O=C(c1nn([C@H]2CCCN(CCN3CCOCC3)C2)c2c1CS(=O)(=O)c1c(Cl)cccc1-2)N1CCOCC1
62 | COc1cccc2c1S(=O)(=O)Cc1c(C(=O)N3CCOCC3)nn([C@H]3CCCN(CCN4CC(F)C4)C3)c1-2
7970 | O=C(c1nn([C@@H]2CCCN(CCF)C2)c2c1CS(=O)(=O)c1ccccc1-2)N1CCOCC1
733 | O=C(CC1CCOCC1)N1CCC(n2nc(C(=O)N3CCOCC3)c3c2-c2ccccc2S(=O)(=O)C3)C1 (configuration not stated)
2200 | O=C(c1nn([C@@H]2CCCN(CCC3CCOCC3)C2)c2c1CS(=O)(=O)c1ccccc1-2)N1CCOCC1
15 | O=C(c1nn([C@H]2CCCN(CCN3CCCCC3)C2)c2c1CS(=O)(=O)c1ccccc1-2)N1CCOCC1
136 | O=C(c1nn(C2CCCCC2)c2c1CS(=O)(=O)c1ccccc1-2)N1CCOCC1
128 | COCCN1CCC[C@H](n2nc(C(=O)N3CCOCC3)c3c2-c2cccc(OC)c2S(=O)(=O)C3)C1
188 | COCCN1CCCC(n2nc(C(=O)N3CCOCC3)c3c2-c2ccccc2S(=O)(=O)C3)C1 (configuration not stated)
200 | O=C(c1nn([C@H]2CCCN(CCF)C2)c2c1CS(=O)(=O)c1ccccc1-2)N1CCOCC1
1760 | O=C(c1nn(C2CCN(CCO)CC2)c2c1CS(=O)(=O)c1ccccc1-2)N1CCOCC1
469 | O=C(c1nn(C2CCCCCC2)c2c1CS(=O)(=O)c1ccccc1-2)N1CCOCC1
166 | O=C(c1nn(C2CCN(CCn3ccnc3)C2)c2c1CS(=O)(=O)c1ccccc1-2)N1CCOCC1 (configuration not stated)
25 | COC1CCN(CCN2CCC[C@H](n3nc(C(=O)N4CCOCC4)c4c3-c3ccccc3S(=O)(=O)C4)C2)C1 (some centres not stated)
1440 | O=C(c1nn([C@H]2CCN(C3CCOCC3)C2)c2c1CS(=O)(=O)c1ccccc1-2)N1CCOCC1

IC50 [nM] | Structure (SMILES)
1480 | COCCN1CCC(n2nc(C(=O)N3CCOCC3)c3c2-c2ccccc2S(=O)(=O)C3)C1 (configuration not stated)
192 | O=C(c1nn(C2CCN(CCN3CC[C@H](F)C3)C2)c2c1CS(=O)(=O)c1ccccc1-2)N1CCOCC1 (some centres not stated)
149 | O=C(c1nn(C2CCCN(CCC(F)(F)F)C2)c2c1CS(=O)(=O)c1ccccc1-2)N1CCOCC1 (configuration not stated)
16 | O=C(c1nn([C@H]2CCCN(CCN3CCOCC3)C2)c2c1CS(=O)(=O)c1ccccc1-2)N1CCOCC1
679 | O=C(c1nn(C2CCCN(CCC(C(F)(F)F)C(F)(F)F)C2)c2c1CS(=O)(=O)c1ccccc1-2)N1CCOCC1 (configuration not stated)
444 | O=C(c1nn([C@@H]2CCCN(CCn3ccnc3)C2)c2c1CS(=O)(=O)c1ccccc1-2)N1CCOCC1
420 | O=C(c1nn(C2CCCC(C(=O)N3CCOCC3)C2)c2c1CS(=O)(=O)c1ccccc1-2)N1CCOCC1 (configuration not stated)
711 | O=C(c1nn(C2CCCN(CCc3ccccc3)C2)c2c1CS(=O)(=O)c1ccccc1-2)N1CCOCC1 (configuration not stated)
1280 | O=C(c1nn([C@@H]2CCCN(CCN3CCOCC3)C2)c2c1CS(=O)(=O)c1ccccc1-2)N1CCOCC1
83 | O=C(c1nn(C2CCCN(CCN3CCCC(F)(F)C3)C2)c2c1CS(=O)(=O)c1ccccc1-2)N1CCOCC1 (configuration not stated)
1920 | COCCN1CCC(n2nc(C(=O)N3CCOCC3)c3c2-c2ccccc2S(=O)(=O)C3)CC1
105 | CC(=O)NCCN1CCC[C@H](n2nc(C(=O)N3CCOCC3)c3c2-c2ccccc2S(=O)(=O)C3)C1
21 | COC1CCN(CCN2CCC[C@H](n3nc(C(=O)N4CCOCC4)c4c3-c3ccccc3S(=O)(=O)C4)C2)CC1
1540 | CC(C)(C)OC(=O)N1CCCC(n2nc(C(=O)N3CCOCC3)c3c2-c2ccccc2S(=O)(=O)C3)C1 (configuration not stated)
14 | O=C(c1nn([C@H]2CCCN(CCN3CC[C@H](F)C3)C2)c2c1CS(=O)(=O)c1ccccc1-2)N1CCOCC1
261 | COCC(=O)N1CCC[C@H](n2nc(C(=O)N3CCOCC3)c3c2-c2ccccc2S(=O)(=O)C3)C1
34 | COCCNCCN1CCC[C@H](n2nc(C(=O)N3CCOCC3)c3c2-c2ccccc2S(=O)(=O)C3)C1
750 | O=C(c1ccoc1)N1CCC[C@H](n2nc(C(=O)N3CCOCC3)c3c2-c2ccccc2S(=O)(=O)C3)C1
